According to US12643887B2, “Heterocyclic derivatives with cardiomyocyte proliferation activity for treatment of heart diseases” (Tongji University, priority 2019, dated 2026):

Experiments:
[1] = test system: Neonatal Rat Ventricular Myocytes (NRVMs); assay: Myocyte proliferation assay (EdU assay) in neonatal rat ventricular myocytes; type: cell-based; details: growth relative to blank myocyte growth without compound added; for Avg 1 uM (average myocyte proliferation): compound 1 uM; for Avg 3 uM (average myocyte proliferation): compound 3 uM; for Avg 10 uM (average myocyte proliferation): compound 10 uM
Procedure: 1. Isolation of and Culture Neonatal Rat Ventricular Myocytes (NRVMs)
Ventricles from neonatal rats were separated from the atria, cut into small pieces (about 2×2 mm^2) and then dissociated in Ca2+-free HBSS containing 0.125 mg ml-1 trypsin (Gibco), 10 μg ml-1 DNase II (Sigma) and 0.1 mg ml-1 collagenase type IV (Sigma). The digestion was carried out under constant stirring at 37° C. for 5 min. The supernatant was collected with FBS (Gibco) after each digestion period. After digestion, the collected supernatant was centrifuged at 1000 g for 10 min at room temperature, and then cell pellets were resuspended in DMEM (Gibco) supplemented with 10% FBS and with 100 uM 5-bromo-2′-deoxyuridine (Sigma). The resuspended cells were passed through a cell strainer ([…], BD Falcon) and seeded onto 100-mm plastic dishes for 2 h at 37° C. in a 5% CO2 to remove fibroblasts, the supernatant was then collected and plated onto 1% gelatin (Sigma)-coated dishes. 24 h after the seeding, the medium was changed to DMEM (Gibco) containing 2% FBS (Gibco), 1% insulin-transferrin-selenium (ITS; Gibco), 1% Penicillin-Streptomycin (Gibco). After 24 hours of low serum culture, remove the medium with DMEM (Gibco) containing 6% FBS (Gibco), 1% insulin-transferrin-selenium (ITS; Gibco), 1% Penicillin-Streptomycin (Gibco), different concentrations of compounds (the compounds were pre-diluted in the medium and the drug concentration was 10 uM, 3 uM, 1 uM, fully mixed). After 36 h add Edu substrate (Invitrogen) according to the manufacturer's guidelines, and then after 12 h cell can be used.
• 2.1. Immobilization: Remove the medium and fix the cells with […] in 200 ul (whichever is covered) for 15 min and wash the cells twice with 500 ul of PBS for 5 min each time. • 2.2. Broken membrane: Add 200 ul of 0.3% Triton-X 100 (diluted in PBS) to each well, incubate for 10-15 min at room temperature (the time should not be too long), and wash the cells twice with 500 ul of PBS for 5 min each time. • 2.3. Blocking: Add 200 ul of 10% normal goat serum (diluted with 0.1% PBST) to each well, incubate for 1 h at room temperature, and wash twice with 500 ul of 0.1% PBST for 5 min each time. • 2.4. Primary antibody: dilute the primary antibody (abcam, ab8295) to blocking solution at a ratio of 1:200, add 100 ul per well, incubate for 1 h at room temperature (may be slightly longer than 2-3 h), wash the cells twice with 500 ul 0.1% PBST for 5 min each time. • 2.5. Secondary antibody: Dilute the fluorescently labeled secondary antibody (abcam, ab150117) into blocking solution at a ratio of 1:200, add 100 ul per well, incubate for 1 h at room temperature (the time should not be too long), wash the cells twice with 0.1% PBST for 5 min each time, pay attention to the whole process. Protected from light. • 2.6. Edu staining (Invitrogen C10338) • 2.6.1 Prepare Click-iT® reaction cocktail according to Table 3. It was important to add the ingredients in the order listed in the table; otherwise, the reaction would not proceed optimally. Use the Click-iT® reaction cocktail within 15 minutes of preparation.
• 2.6.2 Add 0.1 mL of Click-iT® reaction cocktail to each well containing a coverslip. Rock the plate briefly to ensure that the reaction cocktail is distributed evenly over the coverslip. • 2.6.3 Incubate the plate for 30 minutes at room temperature, protected from light. • 2.6.4 Remove the reaction cocktail, then wash the cells twice with 0.1% PBST for 5 min each time. • 2.7. DAPI staining: DAPI stain was diluted to PBS at a ratio of 1:1000, 100 ul per well, incubated for 30 min at room temperature, and the cells were washed twice with PBS for 5 min each. 3. Data Analysis
We used Molecular Devices' Image Xpress Micro Confocal for high-throughput photo and data analysis.

human HIPK1 = target: T1, human HIPK1 (Homo sapiens, UniProt Q86Z02); assay: HIPK1 enzyme assay (ADP-Glo); type: biochemical; details: ADP-Glo, ATP 5 μM; read-out: HIPK1 IC50
T1 construct: Recombinant human HIPK1 (156-555); GST (N); purchased SignalChem H03-11G; host or cells: Sf9 insect cells
T1 sequence (Q86Z02 156-555): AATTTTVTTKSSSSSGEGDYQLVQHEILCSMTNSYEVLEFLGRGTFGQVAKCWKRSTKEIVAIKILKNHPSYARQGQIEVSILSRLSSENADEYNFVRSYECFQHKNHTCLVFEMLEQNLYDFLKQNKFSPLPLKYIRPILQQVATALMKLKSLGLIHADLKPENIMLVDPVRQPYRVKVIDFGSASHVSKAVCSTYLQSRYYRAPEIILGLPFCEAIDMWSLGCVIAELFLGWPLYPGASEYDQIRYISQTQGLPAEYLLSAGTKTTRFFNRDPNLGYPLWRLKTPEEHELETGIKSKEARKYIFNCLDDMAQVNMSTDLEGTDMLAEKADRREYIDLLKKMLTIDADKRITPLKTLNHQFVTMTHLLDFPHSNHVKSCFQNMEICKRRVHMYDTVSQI
Procedure: The ability of compounds to inhibit human HIPK1 kinase activities was determined using a commercially available ADP-Glo™ Kinase Assay kit (Promega, Cat #V9102) according to the manufacturer's protocol.
Recombinant human HIPK1 (156-555) (expressed in Sf9 insect cells with an N-terminal GST tag) was purchased from SignalChem (Cat #H03-11G). Recombinant full length human MBP (expressed in E. Coli cells with an N-terminal GST tag) was purchased from SignalChem (Cat #M42-54G). This assay, run in a 384-well plate format, is a generic method for measuring kinase activities using an ADP-Glo Kinase Assay Kit. The basic assay procedure involves two steps: (1) Enzymatic step: inhibitors are incubated with the kinase and then ATP (included in the ADP-Glo Kinase Assay Kit) and the MBP protein are added to start the enzymatic reaction; (2) Detection step: after the kinase reaction, first ADP-Glo™ Reagent is added to terminate the kinase reaction and deplete the remaining ATP. Second, the Kinase Detection Reagent is added to simultaneously convert ADP to ATP and allow the newly synthesized ATP to be measured using a luciferase/luciferin reaction. The light generated is measured using a luminometer.
Briefly, HIPK1 (4 nM) in the enzymatic buffer solutions (40 mM Tris, pH 7.5, 20 mM MgCl2, 0.1 mg/ml BSA, 50 μM DTT) were mixed with various concentrations of inhibitors (dissolved in 100% DMSO). These solutions were incubated for 30 minutes at 25° C., and subsequently a mixture of substrate peptide and ATP was added with the final peptide and ATP concentrations at 0.05 mg/ml and 5 μM, respectively. The final reaction mixture of enzyme-substrate-ATP-compound was incubated for 90 minutes at 25° C.
Afterwards ADP-Glo™ Reagent was added and the mixture was incubated at 25° C. for 60 minutes. Then Kinase Detection Reagent was added, and the final mixture was incubated at 25° C. for 60 minutes. The luminescence signal of the final solution was measured on an Envision instrument (PerkinElmer). The percent (%) inhibition at each concentration of a compound is calculated relative to the luminescence signal in the Max and Min control wells contained within each assay plate. […] The concentrations and percent inhibition values for a test compound are plotted and the concentration of the compound required to achieve 50% inhibition (IC50) is determined with a four-parameter logistic dose response equation.

Row | Compound | Avg 1 uM (average myocyte proliferation) [1] | Avg 3 uM (average myocyte proliferation) [1] | Avg 10 uM (average myocyte proliferation) [1] | IC50 (human HIPK1)
1 | CN(C1=N/C(=C\c2ccc3c(c2)OCO3)C(=O)N1)c1ccccc1 [Example 1, (Z)-5-(benzo[d][1,3]dioxol-5-ylmethylene)-2-(methyl(phenyl)amino)-3,5-dihydro-4H-imidazol-4-one] | * (<10% growth relative to blank myocyte growth without compound added.) | *** (>50%) | ** (10%-50%) | > 10 µM
2 | O=C1/C(=C/c2ccc3c(c2)OCO3)N=C(N(Cc2ccccc2)c2ccccc2)N1Cc1ccccc1 [Example 2, (Z)-5-(benzo[d][1,3]dioxol-5-ylmethylene)-3-benzyl-2-(benzyl(phenyl)amino)-3,5-dihydro-4H-imidazol-4-one] | * (<10% growth relative to blank myocyte growth without compound added.) | * (<10% growth relative to blank myocyte growth without compound added.) | *** (>50%) | > 10 µM
3 | CN1C(=O)/C(=C/c2ccc3c(c2)OCO3)N=C1N(C)c1ccccc1 [Example 3, (Z)-5-(benzo[d][1,3]dioxol-5-ylmethylene)-3-methyl-2-(methyl(phenyl)amino)-3,5-dihydro-4H-imidazol-4-one] | * (<10% growth relative to blank myocyte growth without compound added.) | * (<10% growth relative to blank myocyte growth without compound added.) | * (<10% growth relative to blank myocyte growth without compound added.) | > 10 µM
4 | O=C1NC(Nc2ccccc2)=N/C1=C\c1ccc2ncsc2c1 [Example 6, (Z)-5-(benzo[d]thiazol-6-ylmethylene)-2-(phenylamino)-3,5-dihydro-4H-imidazol-4-one] | *** (>50%) | ** (10%-50%) | * (<10% growth relative to blank myocyte growth without compound added.) | 0.1 to 1 µM
5 | CN(C1=N/C(=C\c2ccc3ncsc3c2)C(=O)N1)c1ccccc1 [Example 7, (Z)-5-(benzo[d]thiazol-6-ylmethylene)-2-(methyl(phenyl)amino)-3,5-dihydro-4H-imidazol-4-one] | * (<10% growth relative to blank myocyte growth without compound added.) | ** (10%-50%) | * (<10% growth relative to blank myocyte growth without compound added.) | 1 to 10 µM
6 | CN(C1=N/C(=C\c2ccc3c(c2)OCCO3)C(=O)N1)c1ccccc1 [Example 8, (Z)-5-((2,3-dihydrobenzo[b][1,4]dioxin-6-yl)methylene)-2-(methyl(phenyl)amino)-3,5-dihydro-4H-imidazol-4-one] | ** (10%-50%) | * (<10% growth relative to blank myocyte growth without compound added.) | ** (10%-50%) | > 10 µM
7 | O=C1NC(Nc2ccccc2)=N/C1=C\c1ccc(=O)[nH]c1 [Example 9, (Z)-5-((5-oxo-2-(phenylamino)-1,5-dihydro-4H-imidazol-4-ylidene)methyl)pyridin-2(1H)-one] | * (<10% growth relative to blank myocyte growth without compound added.) | ** (10%-50%) | ** (10%-50%) | > 10 µM
8 | O=C1NC(N(CC2CC2)c2ccccc2)=N/C1=C\c1ccc2c(c1)OCO2 [Example 10, (Z)-5-(benzo[d][1,3]dioxol-5-ylmethylene)-2-((cyclopropylmethyl)(phenyl)amino)-3,5-dihydro-4H-imidazol-4-one] | ** (10%-50%) | * (<10% growth relative to blank myocyte growth without compound added.) | *** (>50%) | > 10 µM
9 | CN(CC1CC1)C1=N/C(=C\c2ccc3c(c2)OCO3)C(=O)N1 [Example 11, (Z)-5-(benzo[d][1,3]dioxol-5-ylmethylene)-2-((cyclopropylmethyl)(methyl)amino)-3,5-dihydro-4H-imidazol-4-one] | ** (10%-50%) | ** (10%-50%) | *** (>50%) | > 10 µM
10 | COc1ccc(N(C)C2=N/C(=C\c3ccc4c(c3)OCO4)C(=O)N2)cc1 [Example 12, (Z)-5-(benzo[d][1,3]dioxol-5-ylmethylene)-2-((4-methoxyphenyl)(methyl)amino)-3,5-dihydro-4H-imidazol-4-one] | * (<10% growth relative to blank myocyte growth without compound added.) | ** (10%-50%) |  | > 10 µM
11 | O=C1NC(N(CCO)c2ccccc2)=N/C1=C\c1ccc2c(c1)OCO2 [Example 13, (Z)-5-(benzo[d][1,3]dioxol-5-ylmethylene)-2-((2-hydroxyethyl)(phenyl)amino)-3,5-dihydro-4H-imidazol-4-one] | * (<10% growth relative to blank myocyte growth without compound added.) | ** (10%-50%) |  | 1 to 10 µM
12 | O=C1NC(Nc2ccccc2)=N/C1=C\c1ccc2scnc2c1 [Example 14, (Z)-5-(benzo[d]thiazol-5-ylmethylene)-2-(phenylamino)-3,5-dihydro-4H-imidazol-4-one] | * (<10% growth relative to blank myocyte growth without compound added.) | ** (10%-50%) |  | > 10 µM
